Patent US20130123271A1, “HETEROCYCLIC COMPOUNDS, THEIR PREPARATION AND THERAPEUTIC APPLICATION” (FOVEA PHARMACEUTICALS, priority 2010, published 2013)
Converted amounts (≈) assume the structure as drawn.

Legend:
[1] = target: Src/Lyn (h) (Homo sapiens, UniProt P12931); assay: In vitro potency Src/Lyn (h), Table 2; assay type: biochemical
[2] = target: h Src (Homo sapiens, UniProt P12931); assay: LC3000 Src assay (off-chip incubation mobility-shift kinase assay, Caliper LabChip); assay type: biochemical; settings: ATP at KM apparent
h Src, sequence (P12931 whole entry): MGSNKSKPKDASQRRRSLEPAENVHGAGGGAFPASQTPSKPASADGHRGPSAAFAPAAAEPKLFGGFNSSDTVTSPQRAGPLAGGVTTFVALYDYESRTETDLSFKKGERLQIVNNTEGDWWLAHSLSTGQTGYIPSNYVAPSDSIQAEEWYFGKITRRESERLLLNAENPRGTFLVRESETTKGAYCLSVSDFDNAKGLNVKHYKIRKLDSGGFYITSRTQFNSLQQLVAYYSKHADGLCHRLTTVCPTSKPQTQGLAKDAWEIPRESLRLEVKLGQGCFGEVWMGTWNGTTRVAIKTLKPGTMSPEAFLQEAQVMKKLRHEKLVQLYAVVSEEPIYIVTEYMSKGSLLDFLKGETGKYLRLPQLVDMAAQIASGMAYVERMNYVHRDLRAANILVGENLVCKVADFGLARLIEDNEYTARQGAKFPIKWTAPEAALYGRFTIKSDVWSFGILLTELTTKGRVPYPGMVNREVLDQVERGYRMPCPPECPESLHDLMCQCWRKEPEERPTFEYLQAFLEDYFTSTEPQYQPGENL
Procedure: The screening and profiling experiments described here were performed using Caliper Life Sciences' proprietary LabChip™ technology. Caliper LC3000 and EZ Reader II instruments are widely used throughout the drug discovery process for assay development, primary screening, selectivity screening, generation of Structure-Activity Relationships (SARs) and Mechanism of Action (MOA) studies. The LabChip™ technology is particularly well suited for enzymatic ‘targets’ such as kinases, proteases, phosphatases, histone deacetylases (HDAC), phosphodiesterases (PDE), and acyl-transferases. The key benefit of the technology is the separation and direct measurement of substrates and products, which allows for higher signal-to-noise ratios and fewer false positive/negative results. This direct measurement also allows for the identification and elimination of enzymatic activities that are not associated with the kinase reaction of interest.
The off-chip incubation mobility-shift kinase assay uses a microfluidic chip to measure the conversion of a fluorescent peptide substrate to a phosphorylated product. The reaction mixture, from a microtiter plate well, is introduced through a capillary sipper onto the chip, where the nonphosphorylated substrate and phosphorylated product are separated by electrophoresis and detected via laser-induced fluorescence. […] The phosphorylated product migrates through the chip faster than the non-phosphorylated substrate, and signals from the two forms of the peptide appear as distinct peaks. Caliper's data analysis software (HTSWA) determines peak heights, from which the ratio of product to the peak sum P/(P+S) and percent (%) conversion is calculated. This value is used to compare compound wells to control wells present on the plate, and thereby determine the % inhibition values for the compound. The formula used to calculate % inhibition is as follows, where C100% is the average % conversion of the 100% activity wells and C0% is the average % conversion of the 0% activity wells:
(1-(%conversionofsample—C0%)/(C100%−C0%))*100
Compounds were dissolved in 100% DMSO and diluted to 25× the final desired screening concentration. Serial dilutions were performed to obtain the concentrations specified for particular studies. One μl of each concentration was transferred, in duplicate, to a 384-well Greiner microtiter plate. Generally, 12 μL of enzyme buffer containing purified kinase (various suppliers), 100 mM HEPES, pH 7.5, 1 mM DTT (Calbiochem, 2333153), 10 mM MgCl2 (Sigma, M-1028) or 10 mM MnCl2 (Sigma, M-1787) (assay specific), and 0.002% Brij-35 (Sigma, B4184) was added to each well. Compound and enzyme were allowed to pre-incubate for 15 minutes. 12 μL of peptide/ATP buffer containing 100 mM HEPES, pH 7.5, 1.5 μM fluorescein-labeled peptide (specific to kinase of interest), ATP (at KM apparent, Sigma, A9187), and 0.002% Brij-35 was then added to each well to initiate the reaction. Generally, reactions were incubated for 1-1.5 hours at room temperature to obtain adequate (15-40%) conversion of peptide to phosphorylated product in the linear range of the reaction. Reactions were terminated with the addition of 45 μL of Stop Buffer (containing 20 mM EDTA). Plates were then read on the LabChip 3000 using a 12-sipper LabChip. % conversion values and % inhibition values were obtained as described and IC50 curves of compounds were generated using Graphpad Prism Version 4 or 5.01. A nonlinear curve fit using the sigmoidal dose response—variable slope fit was used to graph IC50 curves and determine IC50 values and hillslopes.

[3] = Ussing chamber permeation study through rabbit cornea; assay type: in vitro ADME; settings: 37° C., 0.5 cm2 rabbit cornea
Procedure: Ussing chambers were used for the permeation study each day of experiment.
3 mL of solution were placed in donor side of Ussing chambers and 3 mL of Ringer solution were in receiver side. Freshly removed rabbit corneal tissue were placed between the two half chambers.
Temperature was maintained at 37° C. during all the flux study and oxygenation was provided by a continuous perfusion of carbogen (oxygen/carbonic acid) (95/5),
Rabbits were euthanized and the 6 corneas were removed and used immediately. 500 μL of receptor side liquid were removed from Ussing chambers and replaced by fresh buffer. The samples were analyzed immediately (less than 10 hours after collection).
100 μL of donor side liquid were removed from Ussing chambers and not replaced. The samples were diluted immediately (less than 1 hour) after collection and analyzed less than 10 hours after dilution. Analysis was performed on HPLC (Stationary phase: C18 (Particle size: 3 μm Length: 5 cm, using a gradient from 5 to 95% ACN/water (0.1% formic acid)).
At the end of the sampling period, all corneas were discarded.

[4] = Solubility in HPbCD 7% pH 5; assay type: physicochemical; settings: HPbCD 7% solution, aqueous with cosolvent or surfactant or cyclodextrin, read-out: Solubility HPbCD 7% pH 5 (mg/ml) measured
[5] = Colour of the compound; assay type: physicochemical; settings: powder
[6] = system: choroidal neovascularisation; assay: Rat model of laser-induced choroidal neovascularization (CNV); assay type: in vivo, rat (Brown Norway); settings: topical solution 6 mg/mL (10 μL) two times daily, 14 days after laser induction
Procedure: We investigated the efficacy of topical administration of compound 25 of the invention in reducing choroidal neovascularisation in the rat (Brown Norway, 8 weeks of age).
On day 1, CNV was performed by laser photocoagulation-induced rupture of Bruch's membrane as previously described (Edelman and Casto 2000). An Argon green laser irradiation was delivered through the slit lamp for induce photocoagulation. In each eye, 6-7 focal laser spots were applied concentrically approximately two optic discs from the center. Immediately afterwards, rats were treated with topical solution 6 mg/mL (10 μL) two times daily until sacrifice. 14 days after laser induction of CNV blood vessels were visualized on retinal pigment epithelium-choroid-sclera flat-mount by immunostaining with isolectin B4.
Assessment of CNV response to treatment was performed after capture and area measurement of immunostained vessels representing CNV at the site of laser burn.
Pixel area of vascular budding was traced by 2 trained masked investigators and converted to μm^2.

Src/Lyn (h), sequence (P12931 whole entry): as above

SMILES	IC50 [1]	IC50 [2]	Flux between 2 and 4 hours through 0.5 cm2 of rabbit cornea (μg/h/cm2) [3]	solubility [4]	Colour [5]	reduction of CNV compared to control [6]
Cc1cc(Nc2ncc3cc(-c4cc(O)ccc4Cl)ccc3n2)cc(N2CCN(CCO)CC2)c1 [Compound 46, 4-Chloro-3-(2-{3-[4-(2-hydroxy-ethyl)-piperazin-1-yl]-5-methyl-phenylamino}-quinazolin-6-yl)-phenol]	0.8 nM	0.8 nM	13 μg/h/cm2	> 10 mg/mL	Pale	–
OCc1cc(Nc2ncc3cc(-c4cc(O)ccc4Cl)ccc3n2)ccn1 [Compound 43, 4-Chloro-3-[2-(2-hydroxymethyl-pyridin-4-ylamino)-quinazolin-6-yl]-phenol]	0.7 nM	0.7 nM	6 μg/h/cm2	1.5 mg/mL (≈ 3.96 mM)	Pale	–
OCCn1cnc2cc(Nc3ncc4cc(-c5cc(O)ccc5Cl)ccc4n3)ccc21 [Compound 45, 4-Chloro-3-{2-[1-(2-hydroxy-ethyl)-1H-benzoimidazol-5-ylamino]-quinazolin-6-yl}-phenol]	1 nM	0.5 nM	8 μg/h/cm2	2.3 mg/mL (≈ 5.33 mM)	Pale	–
OCc1cc(CO)cc(Nc2ncc3cc(-c4cc(O)ccc4Cl)ccc3n2)c1 [compound 16, 3-[2-(3,5-Bis-hydroxymethyl-phenylamino)-quinazolin-6-yl]-4-chloro-phenol]	< 1 nM	0.1 nM	17 μg/h/cm2	1.2 mg/mL (≈ 2.94 mM)	Pale	–
OCc1cc(CO)cc(Nc2nc3ccc(-c4cc(O)ccc4Cl)cn3n2)c1 [compound 5, 3-[2-(3,5-Bis-hydroxymethyl-phenylamino)-[1,2,4]triazolo[1,5-a]pyridin-6-yl]-4-chloro-phenol]	5 nM	5 nM	13 μg/h/cm2	1.3 mg/mL (≈ 3.28 mM)	White	–
OCc1cc(Nc2nc3ccc(-c4cc(O)ccc4Cl)cn3n2)ccn1 [compound 13, 4-Chloro-3-[2-(2-hydroxymethyl-pyridin-4-ylamino)-[1,2,4]triazolo[1,5-a]pyridin-6-yl]-phenol]	27 nM	27 nM	13 μg/h/cm2	2.38 mg/mL (≈ 6.47 mM)	White	–
OCCN1CCN(c2ccc(Nc3nc4ccc(-c5cc(O)ccc5Cl)cn4n3)cn2)CC1 [compound 10, 4-Chloro-3-(2-{6-[4-(2-hydroxy-ethyl)-piperazin-1-yl]-pyridin-3-ylamino}-[1,2,4]triazolo[1,5-a]pyridin-6-yl)-phenol]	14 nM	14 nM	30 μg/h/cm2	5.69 mg/mL (≈ 12.2 mM)	White	–
Cc1nc(Nc2nc3ccc(-c4cc(O)ccc4Cl)cn3n2)cc(N2CCN(CCO)CC2)n1 [Compound 27, 4-Chloro-3-(2-{6-[4-(2-hydroxy-ethyl)-piperazin-1-yl]-2-methyl-pyrimidin-4-ylamino}-[1,2,4]triazolo[1,5-a]pyridin-6-yl)-phenol]	83 nM	83 nM	19 μg/h/cm2	> 10 mg/mL	White	–
Cc1cc(Nc2nc3ccc(-c4cc(O)ccc4Cl)cn3n2)cc(N2CCN(CCO)CC2)c1 [Compound 28, 4-Chloro-3-(2-{3-[4-(2-hydroxy-ethyl)-piperazin-1-yl]-5-methyl-phenylamino}-[1,2,4]triazolo[1,5-a]pyridin-6-yl)-phenol]	3 nM	3 nM	8 μg/h/cm2	7.5 mg/mL (≈ 15.7 mM)	White	–
Oc1ccc(Cl)c(-c2ccc3nc(Nc4ccc(OCCN5CCCC5)nc4)nn3c2)c1 [Compound 25, 4-Chloro-3-{2-[6-(2-pyrrolidin-1-yl-ethoxy)-pyridin-3-ylamino]-[1,2,4]triazolo[1,5-a]pyridin-6-yl}-phenol]	23 nM	23 nM	14 μg/h/cm2	6.5 mg/mL (≈ 14.4 mM)	White	15%
